System: M. tuberculosis H37Rv growth inhibition
Assay: M. tuberculosis H37Rv growth inhibitors, H37Rv strain (AID 1626)
Details: for IC90: measured here: IC90 against H37Rv; for CC50: measured here: Vero cell cytotoxicity

| Compound | IC50 | IC90 | CC50 |
| --- | --- | --- | --- |
| NS(=O)(=O)c1ccc(CCNC(=O)c2ccc3nc4ccc(Cl)cc4c(=O)n3c2)cc1 | 10.1 µM | 30.3 µM |  |
| CCOC(=O)c1cc(-c2csc(COc3ccccc3)n2)on1 | 1.84 µM | 35.2 µM |  |
| Clc1ccc(Nc2ncn[nH]2)c(Cl)c1 | 6.68 µM | > 100 µM | > 40 µM |
| CCOC(=O)c1ccc(NC(=O)CCc2nc(-c3ccccc3)no2)cc1 | 2.32 µM | > 100 µM | > 40 µM |
| CC1CCN(c2ccc(C=O)o2)CC1 | 55.9 µM | > 100 µM |  |
| Cn1c(NCc2ccco2)nc2c1c(=O)n(Cc1ccc(Br)cc1)c(=O)n2C | 99.3 µM | > 100 µM | > 40 µM |
| Cc1ncn(-c2ccc(C(=O)Oc3ccccc3)cn2)n1 | 12.3 µM | > 100 µM | 35.3 µM |
| Cc1ccc(C)c(-c2cc(C(=O)Nc3sc(C)c(C)c3C(N)=O)c3ccccc3n2)c1 |  |  | > 40 µM |
| COc1ccc(N=C2C(=O)Nc3ccccc32)cc1 |  | > 100 µM |  |
| Cc1cc(C)c(N=Cc2c(O)n(-c3nccs3)c(=O)c3ccccc23)c(C)c1 | 13.1 µM | 71.4 µM |  |
| c1nc2n(n1)C1=C(CCCC1)C1(CCCCC1)N2 | 18.2 µM | > 100 µM |  |
| Clc1ccc(-c2nnc3sc(Cc4cccs4)nn23)cc1 | 19.6 µM | > 100 µM |  |
| C/C=C/c1ccc(OCC(=O)OCc2csc(Nc3ccc(C)cc3)n2)c(OC)c1 | 3.83 µM | 8.62 µM |  |
| Nc1ccc2oc(-c3cc(Br)ccc3Cl)nc2c1 | 18.6 µM | > 100 µM |  |
| O=C(/C=C/c1ccnc2ccccc12)c1cccs1 | 17.6 µM | 24.6 µM | > 40 µM |
| Cc1ccc(NC2=CC(=O)C(=O)c3ccccc32)cc1 | 1.49 µM | 1.94 µM | 6.94 µM |
| CCOC(=O)c1ccc(NC(=O)Nc2ncccc2C)cc1 |  |  | > 40 µM |
| COC(=O)c1ccccc1Sc1ncnc2onc(C)c12 | 15.3 µM | 30.7 µM | > 40 µM |
| CCOc1ccc2nc(/N=C/c3c(C)[nH]n(-c4ccc(C)cc4)c3=O)sc2c1 | 9.04 µM | > 100 µM | > 40 µM |
| CCOc1ccc(N2C(=O)c3ccc(C(=O)OCC(=O)N(CC)C4CCS(=O)(=O)C4)cc3C2=O)cc1 (configuration not stated) |  | > 100 µM |  |
| COc1ccc(C2CC(=O)N3CN(c4ccc(C)c(Cl)c4)CSC3=C2C#N)cc1OC (configuration not stated) |  | > 100 µM |  |

| Compound | IC50 | IC90 | CC50 |
| --- | --- | --- | --- |
| O=C(NCc1nc(-c2ccc(C(F)(F)F)cc2)no1)Nc1cc(Cl)cc(Cl)c1 | 5.74 µM | 10.6 µM | 12.6 µM |
| O=C(COC(=O)c1c2c(nc3ccccc13)/C(=C/c1cccc([N+](=O)[O-])c1)CCC2)NC1CCS(=O)(=O)C1 (configuration not stated) | 6.99 µM | > 100 µM | 34 µM |
| CCOc1ccc2nc(NC(=O)CSc3nc(-c4ccccc4)c(C#N)c(=O)[nH]3)sc2c1 |  | > 100 µM |  |
| Cc1ccc(-c2ccc(/C=C/C(=O)c3ccccc3)o2)cc1 | 19.6 µM | > 100 µM | 24.7 µM |
| COc1c(N2CCNC(C)C2)c(F)cc2c(=O)c(C(=O)O)cn(C3CC3)c12 (configuration not stated) | < 0.195 µM | < 0.195 µM |  |
| CSc1nc(N(C)C)c2ccccc2n1 | 42.9 µM | > 100 µM |  |
| COc1ccc(-c2noc(CCC(=O)Nc3ccc(C)c(C)c3)n2)cc1 | 22.6 µM | > 100 µM |  |
| Cc1ccc(N2C(=O)C(F)(F)C2c2ccccc2)cc1 (configuration not stated) | 4.38 µM | 19.7 µM |  |
| CCCCCCC(=O)Nc1nc(C)c(-c2csc(Nc3ccccc3OC)n2)s1 | 5.48 µM | 9.63 µM | > 40 µM |
| CCOC(=O)C(Nc1ccc2ccccc2c1)C(=O)OCC | 1.04 µM | 2.86 µM | > 40 µM |
| COc1ccc(CNC[C@@H](CCCCN(C)Cc2ccc(OC)cc2)N2C[C@H](c3ccccc3)N(CCc3ccc(Cl)c(Cl)c3)C(=O)C2=O)cc1 | 12.2 µM | 19.2 µM | 11.5 µM |
| Cc1c(C(=O)Oc2cccc3cccnc23)cccc1[N+](=O)[O-] | 6.52 µM | 7.5 µM | > 40 µM |
| O=C(CSCc1nc2ccccc2[nH]1)Nc1ccc(Oc2ccccc2)cc1 | 22.9 µM | > 100 µM | > 40 µM |
| CCc1nc2sc3ccccc3c(=O)c2c(=O)n1Cc1ccc(OC)cc1 | 6.25 µM | 8.28 µM | > 40 µM |
| O=C(Oc1ccc(Cl)cc1)c1ccc(N2CCOCC2)c([N+](=O)[O-])c1 | 1.46 µM | 3.16 µM |  |
| COC(=O)CSc1ccc2c(N)c(C(=O)OC)sc2c1 | 1.68 µM | 2.82 µM |  |
| O=C(N[C@H](CO)[C@H](O)c1ccc([N+](=O)[O-])cc1)C(Cl)Cl | 4.82 µM | 7.7 µM | > 40 µM |
| COc1ccc(CNCc2cc3c(C(C)(C)C)nn(-c4ccccc4)c3[nH]c2=O)cc1 | 11.4 µM | 13 µM | > 40 µM |
| CCOc1ccc(NC(=O)CN2CCN(C3c4ccccc4-c4ccccc43)CC2)cc1 | 22.2 µM | > 100 µM | > 40 µM |
| Cc1nn(-c2ccccc2)c2c1C(c1ccc(O)c(O)c1)N1C(=N2)C(Nc2ccccc2)=Nc2ccccc21 (configuration not stated) | 1.5 µM | 2.11 µM | 8.02 µM |
| OCC#CCSc1nnc(-c2ccc(Br)cc2)o1 | 0.543 µM | 17.9 µM |  |

| Compound | IC50 | IC90 | CC50 |
| --- | --- | --- | --- |
| CSc1nc(-c2ccccc2)nc(C(Cl)Cl)n1 | 1.37 µM | 2.04 µM | 6.42 µM |
| CCc1cccc2c(C(=O)COC(=O)c3ccc([N+](=O)[O-])s3)c[nH]c12 | < 0.195 µM | 0.99 µM | > 40 µM |
| Cc1ccc(CSc2nnc(CCCCCNC(=O)OC(C)(C)C)o2)cc1 | 11.7 µM | 13.6 µM |  |
| CC(=O)OCCCN1c2ccccc2Nc2nnc(-c3ccccc3)cc21 |  | > 100 µM | > 40 µM |
| CCOc1ccc2nc(NC(=O)CSC3=NCCS3)sc2c1 |  | > 100 µM |  |
| COc1ccc(NC(=O)CSCc2ccc(C)cc2)cc1 | 26.5 µM | > 100 µM |  |
| CN(C)CCNC=C(C(=O)Nc1ccc(Cl)cc1Cl)C(=O)Nc1ccc(Cl)cc1Cl | 2.45 µM | 3.44 µM | 18.1 µM |
| CCn1ccnc1CN(C)Cc1cn(-c2ccc(C)cc2)nc1-c1ccc(F)cc1 | 5.81 µM | 6.72 µM | > 40 µM |
| O=c1c2ccccc2nc(-c2ccc(Cl)c(Cl)c2)n1O | 43.8 µM | > 100 µM | > 40 µM |
| COc1ccc(-c2cc(O)cc(O)c2)cc1 | 8.79 µM | > 100 µM |  |
| O=C(Nc1ccc(N2CCN(C(=O)c3ccc(Cl)cc3)CC2)cc1)c1ccc([N+](=O)[O-])o1 | < 0.195 µM | < 0.195 µM | 0.417 µM |
| CCCC(=O)OCCNc1cc(Sc2nccn2C)c2nonc2c1[N+](=O)[O-] | 17.9 µM | 31.6 µM | 19.2 µM |
| COc1ccc(NC(=O)COc2ccc3c(c2)CCC3)cc1 | 16.4 µM | > 100 µM |  |
| O=C(Nc1nc(NC(=O)c2ccco2)n(-c2ccccc2)n1)c1ccccc1 | 2.65 µM | 6.79 µM | 8.86 µM |
| O=C(Nc1nnc(-c2ccc3c(c2)OCCO3)o1)C1CCCCC1 |  | > 100 µM |  |
| Cc1cc(C(=O)CCl)c(C)n1-c1cccc([N+](=O)[O-])c1 | 8.96 µM | 15.7 µM | 20.3 µM |
| CCOC(=O)COc1cc2c3c(c(=O)oc2cc1C)CCCC3 | 1.59 µM | 10.4 µM |  |
| CC(=O)N1CCN(c2cc3c(cc2F)c(=O)c(C(=O)O)cn3C2CC2)CC1 | 0.949 µM | 1.56 µM |  |
| Nc1ccc(C(=O)c2cccs2)cc1 | 22.1 µM | > 100 µM |  |
| COc1cccc2sc(Nc3nc(-c4ccccn4)cs3)nc12 | < 0.195 µM | < 0.195 µM | 1.92 µM |
| O=C(Oc1ccc(Cl)c2cccnc12)C12CC3CC(CC(C3)C1)C2 | 4.52 µM | 5.77 µM | > 40 µM |

| Compound | IC50 | IC90 | CC50 |
| --- | --- | --- | --- |
| Cc1ccc(S(=O)(=O)CCc2nnc(NC(=O)c3ccccn3)s2)cc1 |  |  | 38 µM |
| CCCOC(=O)c1ccc(NC(=O)c2cnccn2)cc1 | 15 µM | > 100 µM |  |
| COc1cc(/C=C2\COC/C(=C\c3ccc(O)c(OC)c3)C2=O)ccc1O | 5.7 µM | 10.8 µM | 21.8 µM |
| O=C(CSCC(=O)N1CCCCC1)Nc1nc(-c2ccc(Cl)s2)cs1 | 44 µM | > 100 µM |  |
| Cc1cc(-c2c(C)[nH]n(-c3ccccc3)c2=O)n[nH]1 | 10.5 µM | > 100 µM | 36.2 µM |
| Cc1cccn2c(=O)c3cc(C(=O)NCc4ccco4)c(=N)n(CCc4ccccc4)c3nc12 | 9.99 µM | 21.2 µM | 18.8 µM |
| CC(C)(C)C(=O)/C=C/Nc1ccccc1O | 2.55 µM | 3.93 µM | > 40 µM |
| CCCOC(=O)c1ccc(NC(=O)CCC(=O)OCC)cc1 | < 0.195 µM | > 100 µM |  |
| CCCCCc1cc(=O)oc2c(C(CCN(CC)CC)c3ccc(N(C)C)cc3)c(OC)cc(OC)c12 (configuration not stated) | 4.06 µM | 5.28 µM | 14.9 µM |
| N=C1SC(c2ccccc2)C(=O)N1c1ncc(Cc2ccccc2Cl)s1 (configuration not stated) | 71 µM | > 100 µM | 29.5 µM |
| Cc1ccc(-c2nnc(N3CCN(C(=O)c4ccco4)CC3)c3ccccc23)cc1 | 7.44 µM | 13.8 µM |  |
| O=[N+]([O-])c1cc(S(=O)(=O)C(F)(F)F)ccc1Sc1nc2ccccc2s1 | 0.699 µM | 0.781 µM | 12.6 µM |
| COc1ccc(-c2nnc(NC(=O)c3ccccc3C)o2)cc1 | 0.944 µM | > 100 µM | > 40 µM |
| Cc1ccc(C)c(N=Nc2nc3ccccc3n2C)c1 | 1.33 µM | 1.7 µM | > 40 µM |
| CCOc1ccc(NC(=O)CCn2cccc2)cc1 |  | > 100 µM |  |
| COc1ccc(CCNC(=O)c2c(N)n(CCN3CCOCC3)c3nc4ccccc4nc23)cc1 | 11.3 µM | 19.1 µM | > 40 µM |
| Cc1ccc(NC(=O)CCn2cnc3ccccc3c2=O)cc1Cl |  | > 100 µM |  |
| Cc1ccc(NS(=O)(=O)c2cc(NC(=O)c3ccc4c(c3)NC(=O)CS4)ccc2C)c(C)c1 | 11.1 µM | > 100 µM | > 40 µM |
| CCNc1nc(NC(C)(C)C)nc(N2CCCCC2)n1 | 16 µM | 29.5 µM | > 40 µM |

Source: PubChem BioAssay AID1626 (SRMLSC, 2009)
